Data set [1] concerns Sucrose-Administered Mice. The data set is described as follows: Inhibitory action against increase of blood glucose in sucrose-administered mice. The format is in vivo, Male ICR-swiss mice. To be noted: for Blood Glucose Concentration (mg%) at 30 Min. After Sucrose: fasted mice, sucrose control (0 mg/kg) 205, blank 107. The protocol: Inhibitory Action Against Increase of Blood Glucose in Sucrose-Administered Mice
Male ICR-swiss mice with body weight of 25-35 g were fasted overnight. Sucrose was administered orally by gavage at a dose of 2 g/kg 15 minutes after the similar administration of castanospermine at doses of 0.125 to 60 mg/kg. Animals were sacrificed at 30 minutes after sucrose administration and blood glucose levels were measured by a method using glucose dehydrogenase. […]

In data set [2] the test system is Starch-Administrated Mice. The data set is described as follows: Inhibitory action against increase of blood glucose in starch-administered mice. Type of data set: in vivo, Male ICR-Swiss mice. The note with it: for Blood Glucose Concentration (mg%) at 45 min. After Starch: fasted mice, starch control (0 mg/kg) 126, blank 72. The protocol: Inhibitory Action Against Increase of Blood Glucose in Starch-Administrated Mice
Male ICR-Swiss mice with body weight of 25-35 g were fasted overnight. Starch was administered orally by gavage at a dose of 1 g/kg 15 minutes after the similar administration of castanospermine at doses of 1.9 to 60 mg/kg. Animals were sacrificed at 45 minutes after starch administration and blood glucose levels were measured by a method using glucose dehydrogenase. […]

For data set [3], the system named is intestinal glycosidases (i.e., maltase and sucrase). The note with it: rats, cited from earlier work.

For the compound `O[C@H]1[C@H](O)[C@@H](O)CN2CC[C@H](O)[C@H]12` [Castanospermine, (1S,6S,7R,8R,8aR)-1,6,7,8-tetrahydroxyindolizidine], the minimal effective dose in data set [1] (Mus musculus, 0.5 h, oral gavage 15 min before sucrose 2 g/kg, blood glucose 30 min after sucrose, read-out: dose at which the increase in glucose in the blood could be significantly inhibited) was not below 0.125 mg/kg; in data set [2] (Mus musculus, 0.75 h, oral gavage 15 min before starch 1 g/kg, blood glucose 45 min after starch, read-out: dose at which the increase in glucose in the blood could be significantly inhibited) it was not below 3.8 mg/kg. The “Blood Glucose Concentration (mg%) at 30 Min. After Sucrose” value in data set [1] (castanospermine 0.125 mg/kg oral gavage 15 min before sucrose 2 g/kg) was found to be 159 mg%; in data set [1] (castanospermine 0.25 mg/kg oral gavage 15 min before sucrose 2 g/kg), 167 mg%; in data set [1] (castanospermine 0.5 mg/kg oral gavage 15 min before sucrose 2 g/kg) it was 153 mg%; in data set [1] (castanospermine 1.0 mg/kg oral gavage 15 min before sucrose 2 g/kg), 146 mg%; in data set [1] (castanospermine 2.0 mg/kg oral gavage 15 min before sucrose 2 g/kg) it was 116 mg%. Further, the entries for the “Blood Glucose Concentration (mg%) at 45 min. After Starch” value in data set [2] (castanospermine 1.9 mg/kg oral gavage 15 min before starch 1 g/kg), in data set [2] (castanospermine 3.8 mg/kg oral gavage 15 min before starch 1 g/kg) and in data set [2] (castanospermine 7.5 mg/kg oral gavage 15 min before starch 1 g/kg) were 139 mg%, 83 mg% and 85 mg%, respectively. In addition, in data set [3] (administered by injection, Saul et al., Proc. Nat'l. Acad. Sci. USA, 82, 93 (1985)), the “inhibition of intestinal glycosidases (i.e., maltase and sucrase)” value is “inhibits intestinal glycosidases”. For the same compound, the “adverse observations at high doses” value in data set [3] (high doses administered by injection, Saul et al. (1985)) was “diarrhea and high levels of intestinal bacterial flora were observed”.

The values are drawn from EP0202661B1, “Isolation of castanospermine and its use as an antidiabetic agent” (MERRELL DOW PHARMACEUTICALS INC., priority 1985, dated 1986).
